Laboratory results: patent US8987312B2, “Alpha-keto heterocycles as FAAH inhibitors” (The Scripps Research Institute, priority 2008, dated 2015)
Where two headings read alike, the source gives them in different places.

Assays:
[1] = biological target: T1, KIAA1363 (Mus musculus, UniProt Q8BLF1); experiment: Activity based protein profiling (proteome-wide selectivity screening, FP-Rh), KIAA1363; format: biochemical; conditions: Table 4; for IC50: activity based protein profiling; for KIAA1363 selectivity (value in parentheses): ratio KIAA1363 IC50 / FAAH IC50 (fold selectivity for FAAH)
T1 construct: with FP-Rh in brain and heart membrane proteome; from tissue; host or cells: brain and heart membrane proteome
T1 sequence (Q8BLF1 1-408): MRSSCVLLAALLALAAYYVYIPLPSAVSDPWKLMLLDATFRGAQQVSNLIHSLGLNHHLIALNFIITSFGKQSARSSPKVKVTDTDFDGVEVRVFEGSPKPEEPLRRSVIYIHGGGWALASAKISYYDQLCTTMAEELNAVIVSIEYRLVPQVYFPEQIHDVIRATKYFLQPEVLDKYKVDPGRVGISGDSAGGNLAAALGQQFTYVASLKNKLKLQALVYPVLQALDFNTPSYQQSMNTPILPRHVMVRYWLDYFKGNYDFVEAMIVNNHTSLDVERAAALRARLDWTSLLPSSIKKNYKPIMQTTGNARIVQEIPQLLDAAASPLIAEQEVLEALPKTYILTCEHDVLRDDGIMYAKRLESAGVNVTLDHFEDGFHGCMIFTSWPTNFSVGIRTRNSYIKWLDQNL
Source text: (§1) Enzyme targets such as FAAH, KIAA1363, and TGH are labeled at the left margin.

[2] = biological target: T2, FAAH (Mus musculus, UniProt O08914); experiment: Activity based protein profiling (proteome-wide selectivity screening, FP-Rh), FAAH; format: biochemical; conditions: Table 4
T2 construct: with FP-Rh in brain and heart membrane proteome; from tissue; host or cells: brain and heart membrane proteome
T2 sequence (O08914 1-579): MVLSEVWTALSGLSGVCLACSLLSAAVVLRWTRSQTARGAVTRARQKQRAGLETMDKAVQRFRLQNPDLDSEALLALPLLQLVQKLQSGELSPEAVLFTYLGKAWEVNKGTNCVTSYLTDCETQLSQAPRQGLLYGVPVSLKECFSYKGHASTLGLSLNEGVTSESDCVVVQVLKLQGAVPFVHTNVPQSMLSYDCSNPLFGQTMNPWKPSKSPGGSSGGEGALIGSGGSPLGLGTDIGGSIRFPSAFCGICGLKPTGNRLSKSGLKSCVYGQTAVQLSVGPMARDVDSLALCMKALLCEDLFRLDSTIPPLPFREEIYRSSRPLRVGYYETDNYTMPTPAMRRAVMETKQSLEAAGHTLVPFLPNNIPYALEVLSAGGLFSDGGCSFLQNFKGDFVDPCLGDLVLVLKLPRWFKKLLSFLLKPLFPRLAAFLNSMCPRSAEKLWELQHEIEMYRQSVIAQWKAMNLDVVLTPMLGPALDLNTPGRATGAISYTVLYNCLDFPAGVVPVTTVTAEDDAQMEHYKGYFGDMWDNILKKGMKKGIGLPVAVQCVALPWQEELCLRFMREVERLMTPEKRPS
Source text: as §1

[3] = biological target: T3, purified recombinant rat FAAH (Rattus norvegicus, UniProt P97612); experiment: FAAH inhibition enzyme assay (14C-oleamide hydrolysis, Dixon plot), rat enzyme; format: biochemical
T3 construct: The truncated rat FAAH (rFAAH) was expressed in E. coli and purified as described; made in house; host or cells: Escherichia coli
T3 sequence (P97612 30-579 limits assumed): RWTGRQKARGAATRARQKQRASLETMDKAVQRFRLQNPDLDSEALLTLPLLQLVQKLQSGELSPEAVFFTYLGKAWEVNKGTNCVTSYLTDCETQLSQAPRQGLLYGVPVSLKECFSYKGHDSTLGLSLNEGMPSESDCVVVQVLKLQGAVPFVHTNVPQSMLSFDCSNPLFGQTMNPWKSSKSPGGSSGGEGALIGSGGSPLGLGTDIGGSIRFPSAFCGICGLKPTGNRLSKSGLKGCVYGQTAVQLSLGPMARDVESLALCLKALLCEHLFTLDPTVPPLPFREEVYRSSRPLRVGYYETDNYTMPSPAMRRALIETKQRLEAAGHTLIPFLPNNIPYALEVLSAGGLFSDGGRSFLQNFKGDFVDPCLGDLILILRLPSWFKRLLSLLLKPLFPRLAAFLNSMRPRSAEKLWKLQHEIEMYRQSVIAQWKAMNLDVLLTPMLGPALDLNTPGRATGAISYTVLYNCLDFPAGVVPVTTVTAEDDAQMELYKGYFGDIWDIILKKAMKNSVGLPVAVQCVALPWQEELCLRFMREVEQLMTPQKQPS
Source text: (§2) The purified recombinant rFAAH was used in the inhibition assays unless otherwise indicated.
(§3) The ^14C-labeled oleamide (substrate) and oleic acid (product) were extracted with EtOAc and analyzed by TLC.

[4] = biological target: T4, recombinant human fatty acid amide hydrolase (Homo sapiens, UniProt O00519); experiment: FAAH inhibition enzyme assay, human enzyme (COS-7 lysate); format: biochemical; conditions: Table 3
T4 construct: The full-length human FAAH (hFAAH) was expressed in COS-7 cells as described; expressed in transfected cells; host or cells: COS-7
T4 sequence (O00519 1-579): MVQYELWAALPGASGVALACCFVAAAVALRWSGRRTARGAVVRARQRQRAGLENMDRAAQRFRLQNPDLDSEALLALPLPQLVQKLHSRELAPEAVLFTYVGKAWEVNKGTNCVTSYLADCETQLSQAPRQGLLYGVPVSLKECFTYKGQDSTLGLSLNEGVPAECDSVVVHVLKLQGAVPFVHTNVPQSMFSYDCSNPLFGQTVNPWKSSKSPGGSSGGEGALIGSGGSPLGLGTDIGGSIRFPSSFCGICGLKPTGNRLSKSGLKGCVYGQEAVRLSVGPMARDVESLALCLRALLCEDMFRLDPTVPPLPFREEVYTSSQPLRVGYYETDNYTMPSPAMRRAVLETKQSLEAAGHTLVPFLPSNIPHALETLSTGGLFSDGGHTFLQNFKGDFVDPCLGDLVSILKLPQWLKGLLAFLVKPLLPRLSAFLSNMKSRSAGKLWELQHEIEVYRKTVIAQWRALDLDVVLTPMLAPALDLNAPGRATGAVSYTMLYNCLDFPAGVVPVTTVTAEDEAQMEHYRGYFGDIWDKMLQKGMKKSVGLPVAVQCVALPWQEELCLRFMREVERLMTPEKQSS
Source text: as §2, §3

[5] = biological target: T5, triacylglycerol hydrolase (TGH) (Mus musculus, UniProt Q8VCT4); experiment: Activity based protein profiling (proteome-wide selectivity screening, FP-Rh), TGH; format: biochemical; conditions: Table 4; for IC50: activity based protein profiling; for TGH selectivity (value in parentheses): ratio TGH IC50 / FAAH IC50 (fold selectivity for FAAH)
T5 construct: with FP-Rh in brain and heart membrane proteome; from tissue; host or cells: brain and heart membrane proteome
T5 sequence (Q8VCT4 19-565): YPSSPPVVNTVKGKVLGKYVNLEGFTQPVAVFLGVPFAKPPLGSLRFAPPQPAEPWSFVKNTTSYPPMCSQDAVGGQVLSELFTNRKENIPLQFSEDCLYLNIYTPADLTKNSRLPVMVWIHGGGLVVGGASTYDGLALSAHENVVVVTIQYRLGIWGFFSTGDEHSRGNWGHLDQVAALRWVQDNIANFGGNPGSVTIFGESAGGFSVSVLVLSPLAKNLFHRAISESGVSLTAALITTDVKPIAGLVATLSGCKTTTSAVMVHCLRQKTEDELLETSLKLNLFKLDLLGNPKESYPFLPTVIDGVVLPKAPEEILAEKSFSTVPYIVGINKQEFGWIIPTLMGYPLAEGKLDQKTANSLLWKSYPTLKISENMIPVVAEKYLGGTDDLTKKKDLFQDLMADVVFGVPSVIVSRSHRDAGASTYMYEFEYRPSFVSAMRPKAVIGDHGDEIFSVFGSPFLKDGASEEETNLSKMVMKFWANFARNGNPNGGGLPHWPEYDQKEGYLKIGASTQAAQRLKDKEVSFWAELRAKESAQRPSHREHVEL
Source text: as §1

[6] = CREAE mice; cited from earlier work
[7] = rats; cited from earlier work
[8] = rats; cited from earlier work; remark: listed apart in the source
[9] = test system: FAAH; conditions: cited from earlier work
[10] = rats; cited from earlier work; remark: listed apart in the source
[11] = rat; cited from earlier work
[12] = rats; cited from earlier work; remark: listed apart in the source
[13] = Table 2, rat FAAH, pH 9 assay conditions, read-out: Ki
[14] = Table 3, rat FAAH, read-out: Ki, μM (rat)

SMILES | IC50 [1] | KIAA1363 selectivity (value in parentheses) [1] | IC50 [2] | Ki [4] | IC50 [5] | TGH selectivity (value in parentheses) [5] | Ki [3, 13] | Ki [3, 14] | Ki ([3]; Table 4, read-out: FAAH Ki) | also measured
O=C(O)c1cccc(-c2nc(C(=O)CCCCCCc3ccccc3)no2)n1 [10g, 6-(3-(7-Phenylheptanoyl)-1,2,4-oxadiazol-5-yl)-picolinic Acid] | > 100000 nM | > 1400 | 70 nM | 0.11 µM | > 100000 nM | > 1400 | 0.053 µM | 0.053 µM | 0.053 µM | –
O=C(CCCCCCc1ccccc1)c1cccnn1 [13a, 7-Phenyl-1-(pyridazin-3-yl)-heptan-1-one] | > 100000 nM | > 30 | 3000 nM | – | 5000 nM | 1 | 0.14 µM | – | 0.14 µM | –
COC(=O)c1cccc(-c2ccc(C(=O)CCCCCCc3ccccc3)nn2)n1 [13f, Methyl 6-(6-(7-Phenylheptanoyl)-pyridazin-3-yl)-picolinate] | > 100000 nM | > 10 | 10000 nM | – | > 100000 nM | > 10 | 0.11 µM | – | 0.11 µM | –
N#Cc1cccc(-c2ccc(C(=O)CCCCCCc3ccccc3)nn2)n1 [13h, 6-(6-(7-Phenylheptanoyl)-pyridazin-3-yl)-picolinonitrile] | > 100000 nM | > 8 | 13000 nM | – | 12000 nM | 1 | – | – | 0.39 µM | –
O=C(CCCCCCc1ccccc1)c1nnn(-c2ccccn2)n1 [15b, 7-Phenyl-1-(2-(pyridin-2-yl)-2H-tetrazol-5-yl)-heptan-1-one] | > 100000 nM | – | – | 0.0055 µM | 120 nM | – | – | – | – | –
CCCCCCCCCCCCCCCCS(=O)(=O)F [AM374] | – | – | – | – | – | – | – | – | – | spasticity [6]: significantly reduce spasticity
Cc1nc(-c2ccccc2)c(-c2ccccc2)n1CCCCCCNC(=O)Oc1ccccc1F [BMS-1] | – | – | – | – | – | – | – | – | – | analgesic effect [7]: analgesic effect; analgesic effect [8]: analgesic effect
O=C(CCCCCCc1ccccc1)c1ncc(-c2ccccn2)o1 [OL-135] | – | – | – | – | – | – | – | – | – | FAAH inhibition (in words) [9]: potent inhibitor; analgesic activity, tail emersion [10]: analgesic activity; analgesic efficacy / activity, hot plate [11]: analgesic activity
NC(=O)c1cccc(-c2cccc(OC(=O)NC3CCCCC3)c2)c1 [URB-597] | – | – | – | – | – | – | – | – | – | analgesic efficacy / activity, hot plate [11]: analgesic efficacy; efficacy in model of anxiety [12]: efficacy

Second part, led by results:

IC50 [1] | KIAA1363 selectivity (value in parentheses) [1] | IC50 [2] | Ki [4] | IC50 [5] | TGH selectivity (value in parentheses) [5] | Ki [3, 13] | Ki [3, 14] | Ki ([3]; Table 4, read-out: FAAH Ki) | SMILES | also measured
> 100000 nM | > 1000 | 100 nM | 0.026 µM | > 100000 nM | > 1000 | – | – | – | O=C(O)c1cccc(-c2cnc(C(=O)CCCCCCc3ccccc3)o2)n1 [7g] | Ki ([3]; pH=7.4 (physiological pH), read-out: Ki): 0.0103 µM; Ki ([3]; pH=8, read-out: Ki): 0.0145 µM
90000 nM | 90000 | – | 0.0012 µM | – | 140 | 0.00029 µM | 0.00029 µM | 0.00029 µM | O=C(CCCCCCc1ccccc1)c1nnc(-c2ccccn2)o1 [8b, 7-Phenyl-1-(5-(pyridin-2-yl)-1,3,4-oxadiazol-2-yl)-heptan-1-one] | –
> 100000 nM | – | – | 0.037 µM | 40000 nM | – | – | – | – | O=C(O)c1cccc(-c2nnc(C(=O)CCCCCCc3ccccc3)o2)n1 [8g] | –
30000 nM | 10000 | 3 nM | 0.00092 µM | 30 nM | 10 | 0.00034 µM | 0.00034 µM | 0.00034 µM | O=C(CCCCCCc1ccccc1)c1nc(-c2ccccn2)no1 [9b, 7-Phenyl-1-(3-(pyridin-2-yl)-1,2,4-oxadiazol-5-yl)-heptan-1-one] | –
> 100000 nM | > 14000 | 7 nM | 0.016 µM | 400 nM | 60 | 0.0011 µM | 0.0011 µM | 0.0011 µM | O=C(CCCCCCc1ccccc1)c1noc(-c2ccccn2)n1 [10b, 7-Phenyl-1-(5-(pyridin-2-yl)-1,2,4-oxadiazol-3-yl)-heptan-1-one] | –
> 100000 nM | > 3300 | 30 nM | 0.003 µM | 4500 nM | 150 | 0.0008 µM | 0.0008 µM | 0.0008 µM | O=C(CCCCCCc1ccccc1)c1nnc(-c2ccccn2)s1 [12b, 7-Phenyl-1-(5-(pyridin-2-yl)-1,3,4-thiadiazol-2-yl)-heptan-1-one] | –
